The values that follow come from patent EP1976513B1 (priority 2006, dated 2007).

Structures can show the parent of a compound that is named as a salt. Where two headings read alike, the source gives them in different places.

One may read the IC50 as the concentration that gives 50% inhibition.

The target in one test is T1, serotonin transporter (Rattus norvegicus, UniProt P31652).
T1 construct: synaptosomes isolated in a 0.32M sucrose buffer from a male Wistar rat cortex; from tissue; host or cells: male Wistar rat cortex synaptosomes
The test can be described thus: biochemical. As to conditions: rat synaptosomes, serotonin transporter (SERT).

Test [1] deals with human serotonin reuptake transporter (Homo sapiens, UniProt P31645). The test can be described thus: cell-based. Conditions: recombinant human serotonin transporter (SERT).
In test [2] the target is T2, human dopamine reuptake transporter (Homo sapiens, UniProt Q01959).
T2 construct: expressed in transfected cells; host or cells: CHO-K1 or HEK293
The test can be described thus: cell-based. Conditions: recombinant human dopamine transporter (DAT); read-out: Human IC50 (nM) hDAT.

Test [3] addresses human norepinephrine reuptake transporter (Homo sapiens, UniProt P23975). The test can be described thus: cell-based. Conditions: recombinant human norepinephrine transporter (NET); read-out: Human IC50 (nM) hNET.
Test [4] deals with T3, DA Transporter (DAT) Sites in Mouse Brain (Mus musculus, UniProt Q61327).
T3 construct: Striatum was used to determine occupancy of DA transporter sites; from tissue; host or cells: C57BL/6 mouse striatum homogenate
As to the kind of experiment: Ex vivo [3H] WIN 35428 binding after oral dosing. Also on record: species or system C57BL/6 mice. As to conditions: for % Transporter Occupancy, DAT: 60 minutes after treatment, vs vehicle; for Mean Specific Binding (dpm) ± S.E.M., DAT: mice sacrificed 60 minutes after treatment, striatum.

Test [5] concerns mice. The test can be described thus: Mouse locomotor activity. In kind it is in vivo. Conditions: PO. The method, then: (§1) In order to ensure effects of the compounds on immobility time were not related to a general stimulant effect on baseline motor activity, locomotor activity was assessed using photocell monitored cages (Med-Associates Inc.). Each test chamber was equipped with infrared photocell beams to measure movement of the animals. Horizontal and vertical activity were measured
(§2) Rats or mice were pretreated with vehicle or test compounds and placed back in home cage, following which they will be individually placed in locomotor cages and activity was monitored in 5 minute intervals for up to 60 min.
(§3) Data were analyzed by one way analysis of variance (ANOVA) followed by post-hoc comparisons where appropriate. An effect was considered significant if p < 0.05. Data are represented as the mean and standard error to the mean (s.e.m).

In test [6] the target is Norepinephrine Transporter (NET) Sites in Mouse Brain (Mus musculus, UniProt O55192). Conditions: PO; for % Transporter Occupancy, NET: 60 minutes after treatment, vs vehicle; for Mean Specific Binding (dpm) ± S.E.M., NET: mice sacrificed 60 minutes after treatment, cortex.
The next test relates to Rats. As to the kind of experiment: Rat locomotor activity. In kind it is in vivo. As to conditions: PO. The method, then: as §1, §2, §3
Test [7] deals with T4, 5-HT Transporter (SERT) Sites in Mouse Brain (Mus musculus, UniProt Q60857).
T4 construct: Whole brains were removed and cortex and striata dissected out; from tissue; host or cells: C57BL/6 mouse frontal cortex homogenate
As to the kind of experiment: Ex vivo [3H] citalopram binding after oral dosing. Also on record: species or system C57BL/6 mice. Conditions: for % Transporter Occupancy, SERT: 60 minutes after treatment, vs vehicle; for Mean Specific Binding (dpm) ± S.E.M., SERT: mice sacrificed 60 minutes after treatment, cortex.

A further test deals with T5, dopamine transporter (Rattus norvegicus, UniProt P23977).
T5 construct: synaptosomes isolated in a 0.32 M sucrose buffer from a male Wistar rat striatum; from tissue; host or cells: male Wistar rat striatum synaptosomes
As to the kind of experiment: biochemical. Conditions: rat synaptosomes, dopamine transporter (DAT).

The subject of test [8] is mice. As to the kind of experiment: Mouse tail suspension test. The class given is in vivo. As to conditions: PO, 30-60 minutes before the test, 5 minutes recording.
Where [9] appears, read: read-out: Human IC50 (nM) hSERT.

T2 sequence (Q01959 whole entry): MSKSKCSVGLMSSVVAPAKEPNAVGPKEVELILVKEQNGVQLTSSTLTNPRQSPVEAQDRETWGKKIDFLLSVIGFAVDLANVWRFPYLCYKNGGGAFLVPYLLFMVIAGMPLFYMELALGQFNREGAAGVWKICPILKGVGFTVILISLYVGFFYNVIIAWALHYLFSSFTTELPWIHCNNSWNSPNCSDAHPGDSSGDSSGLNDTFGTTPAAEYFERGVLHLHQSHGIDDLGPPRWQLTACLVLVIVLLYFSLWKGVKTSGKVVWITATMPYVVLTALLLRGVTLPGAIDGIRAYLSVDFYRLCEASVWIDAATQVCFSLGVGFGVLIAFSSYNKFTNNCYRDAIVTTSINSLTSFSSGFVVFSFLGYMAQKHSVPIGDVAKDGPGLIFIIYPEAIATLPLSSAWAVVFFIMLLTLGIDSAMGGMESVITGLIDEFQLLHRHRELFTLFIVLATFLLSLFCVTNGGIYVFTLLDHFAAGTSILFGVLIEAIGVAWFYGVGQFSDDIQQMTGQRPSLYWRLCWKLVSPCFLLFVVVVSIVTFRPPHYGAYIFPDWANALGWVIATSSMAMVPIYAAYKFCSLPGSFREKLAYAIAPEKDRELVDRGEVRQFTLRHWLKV
T1 sequence (P31652 whole entry): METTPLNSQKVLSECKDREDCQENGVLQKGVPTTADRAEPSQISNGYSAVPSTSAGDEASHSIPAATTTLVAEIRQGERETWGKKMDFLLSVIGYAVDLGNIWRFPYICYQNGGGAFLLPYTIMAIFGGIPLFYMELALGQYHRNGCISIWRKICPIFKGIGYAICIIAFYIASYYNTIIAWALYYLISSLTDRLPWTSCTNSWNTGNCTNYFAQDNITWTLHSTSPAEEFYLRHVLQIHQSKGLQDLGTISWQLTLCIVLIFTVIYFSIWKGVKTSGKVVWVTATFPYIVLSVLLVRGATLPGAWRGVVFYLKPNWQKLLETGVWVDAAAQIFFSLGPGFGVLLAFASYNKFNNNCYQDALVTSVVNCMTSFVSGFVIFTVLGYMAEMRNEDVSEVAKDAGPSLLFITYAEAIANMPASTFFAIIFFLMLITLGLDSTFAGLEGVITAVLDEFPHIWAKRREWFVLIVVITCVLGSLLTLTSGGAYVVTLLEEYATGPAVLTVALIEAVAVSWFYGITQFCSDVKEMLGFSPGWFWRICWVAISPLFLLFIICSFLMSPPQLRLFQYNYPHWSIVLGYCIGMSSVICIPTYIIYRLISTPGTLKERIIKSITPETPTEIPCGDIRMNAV
Sequence of Norepinephrine Transporter (NET) Sites in Mouse Brain (O55192 whole entry): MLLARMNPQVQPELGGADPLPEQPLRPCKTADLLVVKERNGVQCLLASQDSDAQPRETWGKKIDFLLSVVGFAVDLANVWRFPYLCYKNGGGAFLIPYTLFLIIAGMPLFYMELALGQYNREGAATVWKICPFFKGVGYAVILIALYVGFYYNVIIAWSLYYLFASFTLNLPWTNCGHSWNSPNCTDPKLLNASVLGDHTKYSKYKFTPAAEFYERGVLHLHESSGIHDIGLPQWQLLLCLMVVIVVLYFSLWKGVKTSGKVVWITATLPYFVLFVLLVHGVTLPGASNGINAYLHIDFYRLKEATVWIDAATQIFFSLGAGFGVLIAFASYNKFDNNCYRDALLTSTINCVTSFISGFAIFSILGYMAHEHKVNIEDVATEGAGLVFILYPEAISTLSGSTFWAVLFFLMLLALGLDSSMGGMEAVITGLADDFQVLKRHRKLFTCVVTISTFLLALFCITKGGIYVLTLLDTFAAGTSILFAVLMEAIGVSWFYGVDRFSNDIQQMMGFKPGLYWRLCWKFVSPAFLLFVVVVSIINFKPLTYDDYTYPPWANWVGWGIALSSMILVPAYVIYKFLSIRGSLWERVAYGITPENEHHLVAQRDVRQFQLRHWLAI
T5 sequence (P23977 whole entry): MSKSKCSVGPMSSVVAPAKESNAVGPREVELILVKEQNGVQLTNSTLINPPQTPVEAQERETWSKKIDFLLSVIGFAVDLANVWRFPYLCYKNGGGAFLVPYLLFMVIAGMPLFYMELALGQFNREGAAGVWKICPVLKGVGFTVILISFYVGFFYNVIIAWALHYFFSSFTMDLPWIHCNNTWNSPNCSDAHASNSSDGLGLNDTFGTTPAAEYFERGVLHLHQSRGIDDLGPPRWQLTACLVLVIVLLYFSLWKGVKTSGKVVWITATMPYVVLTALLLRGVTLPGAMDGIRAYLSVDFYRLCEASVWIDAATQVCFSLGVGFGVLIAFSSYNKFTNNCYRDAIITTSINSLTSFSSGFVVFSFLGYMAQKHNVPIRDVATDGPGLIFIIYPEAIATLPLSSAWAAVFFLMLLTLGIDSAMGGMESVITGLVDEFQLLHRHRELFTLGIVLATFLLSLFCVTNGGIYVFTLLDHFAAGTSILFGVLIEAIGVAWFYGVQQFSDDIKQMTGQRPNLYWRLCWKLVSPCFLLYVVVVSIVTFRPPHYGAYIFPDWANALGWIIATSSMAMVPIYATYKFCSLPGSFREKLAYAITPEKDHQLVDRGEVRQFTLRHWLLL
T4 sequence (Q60857 whole entry): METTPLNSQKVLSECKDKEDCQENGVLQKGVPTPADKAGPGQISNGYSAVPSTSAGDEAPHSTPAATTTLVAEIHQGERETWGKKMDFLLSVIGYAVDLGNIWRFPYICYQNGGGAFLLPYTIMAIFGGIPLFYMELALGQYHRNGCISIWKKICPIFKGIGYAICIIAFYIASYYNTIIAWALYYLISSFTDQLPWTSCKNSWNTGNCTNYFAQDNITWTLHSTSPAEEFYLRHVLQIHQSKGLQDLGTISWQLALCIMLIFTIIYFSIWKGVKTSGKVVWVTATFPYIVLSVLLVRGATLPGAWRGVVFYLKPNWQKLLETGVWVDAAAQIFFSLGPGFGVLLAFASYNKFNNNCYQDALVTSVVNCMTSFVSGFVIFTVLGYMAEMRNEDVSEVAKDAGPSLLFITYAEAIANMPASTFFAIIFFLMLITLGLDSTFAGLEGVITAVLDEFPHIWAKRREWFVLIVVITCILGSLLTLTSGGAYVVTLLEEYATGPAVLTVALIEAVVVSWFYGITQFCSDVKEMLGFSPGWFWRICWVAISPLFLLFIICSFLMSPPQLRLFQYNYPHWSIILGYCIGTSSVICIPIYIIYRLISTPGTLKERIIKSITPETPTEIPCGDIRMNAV
T3 sequence (Q61327 whole entry): as the sequence (P23977 whole entry) above, with S21P, A57V, A194S, H600R, L619V counted along it
Sequence of human norepinephrine reuptake transporter (P23975 whole entry): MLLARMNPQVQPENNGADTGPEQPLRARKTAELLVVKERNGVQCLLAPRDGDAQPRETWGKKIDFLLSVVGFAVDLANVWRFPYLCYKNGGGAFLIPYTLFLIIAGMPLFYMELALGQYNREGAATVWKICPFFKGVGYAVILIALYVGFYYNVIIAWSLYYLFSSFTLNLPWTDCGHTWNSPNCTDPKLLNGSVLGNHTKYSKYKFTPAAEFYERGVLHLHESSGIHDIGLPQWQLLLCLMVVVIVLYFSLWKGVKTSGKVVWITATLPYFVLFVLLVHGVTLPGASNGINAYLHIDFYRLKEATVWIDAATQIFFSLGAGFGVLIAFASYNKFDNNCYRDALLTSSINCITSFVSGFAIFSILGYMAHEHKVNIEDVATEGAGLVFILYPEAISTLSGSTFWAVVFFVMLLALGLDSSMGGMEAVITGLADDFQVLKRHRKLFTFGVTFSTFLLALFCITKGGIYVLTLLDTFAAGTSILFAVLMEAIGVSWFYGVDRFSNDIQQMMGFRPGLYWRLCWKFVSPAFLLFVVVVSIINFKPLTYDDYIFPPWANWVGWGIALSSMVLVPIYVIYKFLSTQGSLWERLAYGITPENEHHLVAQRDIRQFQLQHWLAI
Sequence of human serotonin reuptake transporter (P31645 whole entry): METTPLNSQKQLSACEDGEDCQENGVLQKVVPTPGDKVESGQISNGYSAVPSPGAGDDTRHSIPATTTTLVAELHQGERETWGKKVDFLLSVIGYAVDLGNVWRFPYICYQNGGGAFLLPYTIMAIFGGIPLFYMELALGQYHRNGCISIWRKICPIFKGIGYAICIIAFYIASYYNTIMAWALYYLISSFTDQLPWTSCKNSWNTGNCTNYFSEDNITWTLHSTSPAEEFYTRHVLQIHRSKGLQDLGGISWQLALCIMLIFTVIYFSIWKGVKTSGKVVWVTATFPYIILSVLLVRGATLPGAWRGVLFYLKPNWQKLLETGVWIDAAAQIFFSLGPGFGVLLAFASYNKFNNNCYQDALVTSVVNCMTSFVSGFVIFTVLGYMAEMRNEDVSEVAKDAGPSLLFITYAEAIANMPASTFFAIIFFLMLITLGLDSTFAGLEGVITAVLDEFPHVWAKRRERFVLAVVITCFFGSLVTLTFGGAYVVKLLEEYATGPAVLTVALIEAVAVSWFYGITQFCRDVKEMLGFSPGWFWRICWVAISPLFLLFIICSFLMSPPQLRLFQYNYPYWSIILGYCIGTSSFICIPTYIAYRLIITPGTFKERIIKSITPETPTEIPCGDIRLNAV

With `CNC(C)C1(c2ccc3ccccc3c2)CCCCC1` (single isomer, unassigned) [58 E2, N-methyl-1-(1-(naphthalen-2-yl)cyclohexyl)ethanamine], at serotonin transporter (Rat IC50 (nM) rSERT), the IC50 was 100 nM.
In the case of `CC1(O)CCC(CN)(c2ccc3ccccc3c2)CC1` (stereo not shown) [Compound 209, 4-(aminomethyl)-1-methyl-4-(naphthalen-2-yl)cyclohexanol], the IC50 in test [1] (setting [9]) is 1160 nM; in test [2], 4760 nM; in [3], above 10000 nM.
With `CC1(O)CCC(CN)(c2ccc(OC(F)(F)F)cc2)CC1` (stereo not shown) [Compound 219, 4-(aminomethyl)-1-methyl-4-(4-(trifluoromethoxy)phenyl)-cyclohexanol], the IC50 in test [1] (setting [9]) is 269 nM; in [2], above 10000 nM; in [3] it was above 10000 nM.
`CN(C)CC1(c2ccc(Cl)c(Cl)c2)CCC(C)(O)CC1` (stereo not shown) [Compound 277, 4-(3,4-dichlorophenyl)-4-((dimethylamino)methyl)-1-methylcyclohexanol]: the IC50 at serotonin transporter (Rat IC50 (nM) rSERT) was 42 nM; in [1] (setting [9]), 34 nM; on dopamine transporter (Rat IC50 (nM) rDAT), 43 nM. The “% Transporter Occupancy, DAT” value in [4] (1 mg/kg) worked out at 17%; in test [4] (3 mg/kg), 21%; in test [4] (10 mg/kg), 23%; in test [4] (30 mg/kg), 26%. In addition, the “Mean Specific Binding (dpm) ± S.E.M., DAT” value is listed as 35827 ± 2302 dpm in test [4] (1 mg/kg), 34136 ± 4104 dpm in test [4] (3 mg/kg), 33230 ± 2807 dpm in test [4] (10 mg/kg) and 31743 ± 4406 dpm in test [4] (30 mg/kg). Further, the “Mouse Locomotor Activity Total Distance Traveled ± S.E.M.” value is 418.8 ± 80.6 in the test on mice [5] (3 mg/kg), 411.8 ± 87.8 with mice [5] (10 mg/kg) and 327.7 ± 67.1 with mice [5] (30 mg/kg). The “% Transporter Occupancy, NET” value in test [6] (1 mg/kg) stood at 6%; in test [6] (3 mg/kg), 18%; in [6] (10 mg/kg) it was 47%; in test [6] (30 mg/kg), 71%. Also, the “Mean Specific Binding (dpm) ± S.E.M., NET” value worked out at 950 ± 46 dpm in test [6] (1 mg/kg), 824 ± 30 dpm in [6] (3 mg/kg), 533 ± 25 dpm in test [6] (10 mg/kg) and 294 ± 42 dpm in test [6] (30 mg/kg). Also, the “Rat Locomotor Activity Total Distance Traveled ± S.E.M.” value in the test with Rats (3 mg/kg) was 1406.2 ± 84.9; in the test with Rats (10 mg/kg) it was 1861.4 ± 187.8; with Rats (30 mg/kg), 2612.4 ± 210.8. Also, the “% Transporter Occupancy, SERT” value in test [7] (1 mg/kg) is listed as -6%; in test [7] (3 mg/kg), -5%; in test [7] (10 mg/kg), 0%; in test [7] (30 mg/kg) it was 3%. Further, the “Mean Specific Binding (dpm) ± S.E.M., SERT” value is on record as 1508 ± 86 dpm in [7] (1 mg/kg), 1491 ± 75 dpm in [7] (3 mg/kg), 1416 ± 43 dpm in test [7] (10 mg/kg) and 1384 ± 101 dpm in test [7] (30 mg/kg).
For the compound `NCC1(c2ccc(F)c(F)c2)CCCCC1` [Compound 30, (1-(3,4-difluorophenyl)cyclohexyl)methanamine hydrochloride], the IC50 in test [1] (setting [9]) is 4520 nM; in test [2] it was 5870 nM; in test [3], above 10000 nM.
For `CNCC1(c2ccc3c(c2)OCO3)CCC(O)CC1` (stereo not shown) [Compound 237, 4-(benzo[d][1,3]dioxol-5-yl)-4-((methylamino)methyl)cyclohexanol] the same measures were 7300 nM, 9130 nM and above 10000 nM.
As for `CN(C)CC1(c2ccc(Cl)c(Cl)c2)CCC(F)(F)CC1` [Compound 269, 1-(1-(3,4-dichlorophenyl)-4,4-difluorocyclohexyl)-N,N-dimethylmethanamine], the IC50 in [1] (setting [9]) was 787 nM; in test [2], below 1 nM; in [3], 36 nM.
For `CNC(C)C1(c2ccc3ccccc3c2)CCCCC1` (single isomer, unassigned) [58 E1, N-methyl-1-(1-(naphthalen-2-yl)cyclohexyl)ethanamine], the IC50 on serotonin transporter (Rat IC50 (nM) rSERT) amounted to 9.5 nM. Further, the “% Transporter Occupancy, DAT” value is on record as 7% in test [4] (1 mg/kg), 11% in test [4] (3 mg/kg), -2% in test [4] (10 mg/kg) and 24% in [4] (30 mg/kg). In addition, the “Mean Specific Binding (dpm) ± S.E.M., DAT” value amounted to 15732 ± 1360 dpm in test [4] (1 mg/kg), 14938 ± 2613 dpm in [4] (3 mg/kg), 17215 ± 2151 dpm in test [4] (10 mg/kg) and 12876 ± 2152 dpm in test [4] (30 mg/kg). The “% Transporter Occupancy, SERT” value in [7] (1 mg/kg) was 5%; in [7] (3 mg/kg), 11%; in test [7] (10 mg/kg) it was 47%; in test [7] (30 mg/kg), 86%. Further, the “Mean Specific Binding (dpm) ± S.E.M., SERT” value in test [7] (1 mg/kg) was found to be 3245 ± 107 dpm; in test [7] (3 mg/kg), 3021 ± 182 dpm; in test [7] (10 mg/kg), 1799 ± 115 dpm; in test [7] (30 mg/kg), 469 ±43 dpm.
With `CN(C)CC1(c2ccc(Cl)c(Cl)c2)CCC(F)CC1` (stereo not shown) [Compound 254, 1-(1-(3,4-dichlorophenyl)-4-fluorocyclohexyl)-N,N-dimethylmethanamine], the IC50 in test [1] (setting [9]) is 294 nM; in test [2] it was below 1 nM; on dopamine transporter (Rat IC50 (nM) rDAT), 100 nM.
Consider `NCC1(c2ccccc2)CCCCC1` [Compound 31, (1-phenylcyclohexyl)methaneamine hydrochloride], for which the IC50 in test [1] (setting [9]), in [2] and in [3] was above 10000 nM each time.
Regarding `CNCC1(c2ccc(OC(F)(F)F)cc2)CCC(O)CC1` (stereo not shown) [Compound 249, 4-((methylamino)methyl)-4-(4-(trifluoromethoxy)phenyl)cyclohexanol], the IC50 was 405 nM in [1] (setting [9]), above 10000 nM in test [2] and above 10000 nM in [3].
Consider `NCC1(c2ccc(OC(F)(F)F)cc2)CCCCC1` [Compound 15, (1-(4-(trifluoromethoxy)phenyl)cyclohexyl)methanamine], for which the IC50 in [1] (Human IC50 (nM) hSERT) is 1400 nM; in test [2], above 10000 nM; in test [3], above 10000 nM.
With `CNCC1(c2ccc(Cl)c(Cl)c2)CCCCC1.Cl` [Compound 75, 1-(1-(3,4-dichlorophenyl)cyclohexyl)-N-methylmethanamine (hydrochloride)], the “Mouse Locomotor Activity Total Distance Traveled ± S.E.M.” value with mice [5] (3 mg/kg) was 653.5 ± 48.4; with mice [5] (10 mg/kg), 608.8 ± 83.4; in the test on mice [5] (30 mg/kg), 655.3 ± 117.7. In addition, at dopamine transporter (Rat IC50 (nM) rDAT), the IC50 worked out at 58 nM. Also, the results for the “Mouse Tail Suspension Mean Immobility Time ± S.E.M.” value with mice [8] (3 mg/kg), in the test on mice [8] (10 mg/kg) and with mice [8] (30 mg/kg) were 187.8 ± 9.6, 177.7 ± 5.8 and 143.5 ± 5.8, respectively.
As to `NCC1(c2cccc3ccccc23)CCCCC1` [Compound 12, (1-(naphthalen-1-yl)cyclohexyl)methanamine], the IC50 came to 1100 nM at serotonin transporter (read-out: Rat IC50 (nM) rSERT) and 1900 nM at dopamine transporter (read-out: Rat IC50 (nM) rDAT).
Regarding `COC1CCC(CN(C)C)(c2ccc(Cl)c(Cl)c2)CC1` (stereo not shown) [Compound 256, 1-(1-(3,4-dichlorophenyl)-4-methoxycyclohexyl)-N,N-dimethylmethanamine], the IC50 at serotonin transporter (read-out: Rat IC50 (nM) rSERT) is 280 nM; in test [1] (setting [9]), 69 nM; in test [2] it was 157 nM; at dopamine transporter (read-out: Rat IC50 (nM) rDAT), 990 nM.
